Data set [1] deals with CD1 male mice. Briefly: Effects on spontaneous motor activity in mice. It counts as in vivo. The conditions noted are these: mean ± s.e. Here is the method: For this study, type CD1 male mice (n=8) were used. The effects of the products under study and of the reference compounds were evaluated using an apparatus consisting of a Plexiglas cage (40 cm×40 cm) surrounded by a series of photocells which monitor the movements of the animals placed inside, connected a computerised system, through which, the signals are collected and later elaborated.
Tests were carried out, after endoperitoneal administration of the products. 15 minutes after treatment, the treated animals, alternating with the controls, were placed inside the cage so as to record their spontaneous movements over a total period of 45 minutes broken down into two observation intervals (15′-45′ and 45′-60′, with respect to the time after treatment).
To examine the possible effects of the compounds studied on motor activity, the following parameters were considered: horizontal activity, vertical activity: total distance.
Except for CGS 21680 (reference compound, described in EP 0 277 917, Ciba-Geigy) which was dissolved in 0.9% NaCl, the products studied were solubilised in DMSO and then diluted in Cremofor EL and 0.9% NaCl (final concentrations: DMSO 15%, Cremofor EL 15%, NaCl 0.9%.

Data set [2] has as its system CD1 male mice. Briefly: Capacity of the products to induce catalepsy in mice. It counts as in vivo. The conditions noted are these: 60 mg/kg, endoperitoneal, 30 minutes prior to the test. Here is the method: 10 CD1 male mice were used per group. For this test, a steel bar, 10 cm long, was placed at a height of 4.5 cm above the support surface. Onto this, were placed the front legs of the animals. The presence of catalepsy was determined by measuring the time (in seconds) the animal remained in the posture placed. Later, this parameter was placed relatively, on a scale of rising values (0 to 5) through which, the degree of catalepsy determined in both control animals and in these subjected to treatment with the substances under test could be proportionately expressed.
The reference products and these in this study were administered endoperitoneally, in a volume of 10 ml/kg, 30 minutes prior to the test.
Except for CGS 21680 (reference compound) which was dissolved in 0.9% NaCl, the products in the study and the control antagonist ZM 241385 were solubilised in DMSO and then diluted in Cremofor EL and 0.9% NaCl (final concentrations: DMSO 15%, Cremofor EL 15%, NaCl 0.9%).

The conditions of data set [3]: El Yacoubi M; et al Eur. J. Pharm. 401 (2000) 63-77; cited from earlier work.
The conditions of data set [4]: literature (Ongini et al.); cited from earlier work.
In another data set the target is T1, human A2b receptor (Homo sapiens, UniProt P29275).
T1 construct: expressed in transfected cells; host or cells: HEK 293
T1 sequence (P29275 1-332): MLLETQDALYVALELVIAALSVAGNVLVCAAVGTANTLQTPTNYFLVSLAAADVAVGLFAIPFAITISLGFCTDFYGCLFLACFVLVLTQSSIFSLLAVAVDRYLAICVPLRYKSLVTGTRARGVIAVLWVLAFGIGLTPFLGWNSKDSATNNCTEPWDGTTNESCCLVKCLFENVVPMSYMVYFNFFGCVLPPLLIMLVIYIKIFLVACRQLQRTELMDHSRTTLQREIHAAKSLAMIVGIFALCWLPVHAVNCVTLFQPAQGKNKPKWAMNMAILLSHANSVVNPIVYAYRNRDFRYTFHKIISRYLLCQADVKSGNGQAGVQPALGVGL
Briefly: Affinity towards the adenosine A2b receptor ([3H]-DPCPX binding, HEK 293 membranes). The conditions noted are these: read-out: A2b Ki (nM) ± sd. As for the experimental part:
The interactive capacity of each product towards the adenosine A2b receptor was evaluated using membranes from HEK 293 cells stably expressing the human A2b receptor subtype exclusively.
Non-specific binding was measured in the presence of NECA (50 μM).
In binding studies for each compound, eight different concentrations (from 10^−5 M to 10^−12 M) were evaluated in order to obtain competition curves. By means of non-linear regression analysis of the competition curves, the IC50 values, which express the binding affinity of each product, were determined. Using the Cheng Prusoff equation (Ki=IC50/1+(L/Kd)) Ki values were calculated through which the affinity of each product studied, for the receptor investigated, is expressed.

In data set [5] the target is T2, human A1 subtype adenosine receptor (Homo sapiens, UniProt P30542).
T2 construct: expressed in transfected cells; host or cells: CHO-K1
T2 sequence (P30542 1-326): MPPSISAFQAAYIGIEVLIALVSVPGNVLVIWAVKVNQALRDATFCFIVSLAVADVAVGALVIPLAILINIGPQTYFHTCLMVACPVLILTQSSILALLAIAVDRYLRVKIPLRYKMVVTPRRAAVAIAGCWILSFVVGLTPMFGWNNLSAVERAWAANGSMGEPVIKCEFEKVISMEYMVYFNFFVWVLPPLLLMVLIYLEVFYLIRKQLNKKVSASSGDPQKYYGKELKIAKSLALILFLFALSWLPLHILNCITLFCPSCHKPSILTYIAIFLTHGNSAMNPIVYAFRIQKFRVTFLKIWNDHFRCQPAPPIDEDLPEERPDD
Briefly: Affinity towards the adenosine A1 receptor ([3H]-DPCPX binding, CHO-K1 membranes). The conditions noted are these: read-out: A1 Ki (nM) ± sd.

Data set [6] concerns the target T3, human A2a receptor (Homo sapiens, UniProt P29274). The conditions noted are these: ratio of receptor affinity (selectivity).
For data set [7], the target named is T3, human A2a receptor. Briefly: biochemical.
[8] abbreviates: 15 mg/kg endoperitoneal, interval 15′-45′ from treatment.
The mark [9] stands for this setting: 15 mg/kg endoperitoneal, interval 45′-60′ from treatment.
Setting [10] is: 30 mg/kg endoperitoneal, interval 15′-45′ from treatment.
The mark [11] stands for this setting: 30 mg/kg endoperitoneal, interval 45′-60′ from treatment.
The mark [12] stands for this setting: 60 mg/kg endoperitoneal, interval 15′-45′ from treatment.
[13] abbreviates: 60 mg/kg endoperitoneal, interval 45′-60′ from treatment.

T3 sequence (P29274 whole entry): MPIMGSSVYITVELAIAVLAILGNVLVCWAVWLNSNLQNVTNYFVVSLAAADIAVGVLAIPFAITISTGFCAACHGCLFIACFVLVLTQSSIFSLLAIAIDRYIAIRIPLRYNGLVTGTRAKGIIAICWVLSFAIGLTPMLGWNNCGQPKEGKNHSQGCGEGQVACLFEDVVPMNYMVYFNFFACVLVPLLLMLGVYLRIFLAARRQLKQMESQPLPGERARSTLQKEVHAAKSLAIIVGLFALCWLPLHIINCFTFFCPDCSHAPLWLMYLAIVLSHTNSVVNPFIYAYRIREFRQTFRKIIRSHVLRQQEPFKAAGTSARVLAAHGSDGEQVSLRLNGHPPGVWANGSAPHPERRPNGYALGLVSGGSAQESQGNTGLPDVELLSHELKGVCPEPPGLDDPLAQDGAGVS

Turning to `Nc1nc(NCCc2ccc(O)cc2)nc2nc(-c3ccco3)nn12` [ZM 241385, reference compound], the Horizontal activity with CD1 male mice [1] (setting [8]) is 8706 ± 473; with CD1 male mice [1] (setting [9]) it was 4148 ± 241; in the data set with CD1 male mice [1] (setting [10]) it was 7035 ± 709; in the data set with CD1 male mice [1] (setting [11]) it was 3505 ± 375; in the data set with CD1 male mice [1] (setting [12]), 7790 ± 980; in the data set on CD1 male mice [1] (setting [13]) it was 4241 ± 407. For the same molecule, the Total distance is recorded as 2280 ± 242 in the data set with CD1 male mice [1] (setting [8]); 1022 ± 130 in the data set with CD1 male mice [1] (setting [9]); 1725 ± 186 in the data set on CD1 male mice [1] (setting [10]); 783 ± 165 with CD1 male mice [1] (setting [11]); 2250 ± 401 in the data set on CD1 male mice [1] (setting [12]); 1131 ± 158 in the data set with CD1 male mice [1] (setting [13]). In addition, the Vertical activity is reported as 680 ± 64 in the data set with CD1 male mice [1] (setting [8]); 362 ± 78 in the data set with CD1 male mice [1] (setting [9]); 613 ± 102 in the data set with CD1 male mice [1] (setting [10]); 282 ± 37 in the data set with CD1 male mice [1] (setting [11]); 570 ± 129 in the data set with CD1 male mice [1] (setting [12]); 264 ± 56 in the data set with CD1 male mice [1] (setting [13]). Further, in the data set on CD1 male mice [2], the “appearance of catalepsy in mice (FIG. 1)” value is on record as “none of them brought about the appearance of catalepsy in mice, analogous to the reference antagonist”. For the same molecule, in data set [3], the bioavailability in vivo result is recorded as “very low bioavailability”.

Consider `CCn1c(=O)c2c(nc(/C=C/c3ccc(OC)c(OC)c3)n2C)n(CC)c1=O` [KW-6002], for which the “photoisomerisation of the ethylenic bond (stability)” value in data set [4] was “subject to loss of activity through photoisomerisation of the ethylenic bond”.

`Cn1c(-n2nccn2)nc2c(N)nccc21` [ST 1680, 4-amino-1-methyl-2-(triazol-2-yl)-1(H)-imidazo[4,5-c]pyridino triflate]: the Ki at human A2b receptor worked out at 926 ± 55 nM; in data set [5] it was 1560 ± 252 nM; on human A2a receptor [7], 97 ± 23 nM. In addition, the KiA1/KiA2a on human A2a receptor [6] is recorded as 16.

These data come from patent US7528252B2, “Derivatives of triazoly-imidazopyridine useful as ligands of the adenosine A2a receptor and their use as medicaments” (Sigma-Tau Industrie Farmaceutiche Riunite S.p.A., priority 2002, dated 2009).
